Results: patent publication US10329294B2, “Pyrazolopyrimidine inhibitors of IRAK4 activity” (MERCK SHARP & DOHME CORP., priority 2015, dated 2019)
Structures can show the parent of a compound that is named as a salt.

These molecules were tested against IRAK4 (Homo sapiens (Human), UniProt Q9NWZ3) (assay: IRAK4 Kinase Assay). Conditions: IMAP fluorescence polarization, 0.5 nM GST tagged IRAK4, 100 μM ATP, 30 minutes at 25° C.; read-out: IRAK4 IC50.
Type: biochemical

IRAK4, sequence (Q9NWZ3 whole entry): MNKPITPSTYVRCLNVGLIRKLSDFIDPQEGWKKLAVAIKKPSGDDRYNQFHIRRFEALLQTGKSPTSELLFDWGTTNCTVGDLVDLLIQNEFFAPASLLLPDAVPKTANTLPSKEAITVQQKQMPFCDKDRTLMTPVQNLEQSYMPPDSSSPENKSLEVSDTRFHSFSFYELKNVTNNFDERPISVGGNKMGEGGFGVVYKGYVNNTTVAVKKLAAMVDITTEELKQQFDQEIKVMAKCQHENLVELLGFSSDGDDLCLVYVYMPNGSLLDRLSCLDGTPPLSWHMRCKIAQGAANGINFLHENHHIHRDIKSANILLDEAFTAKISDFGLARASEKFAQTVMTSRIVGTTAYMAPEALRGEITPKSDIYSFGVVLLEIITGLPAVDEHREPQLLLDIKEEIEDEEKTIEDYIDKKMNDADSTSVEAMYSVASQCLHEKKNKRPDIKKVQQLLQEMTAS

Structure (SMILES)	IC50 [nM]
O=C(Nc1ccsc1Cl)c1cnn2ccc(N3CC4CCC3CN4)nc12 (stereo not drawn) [Example 134, N-(2-chlorothiophen-3-yl)-5-(2,5-diazabicyclo[2.2.2]oct-2-yl)pyrazolo[1,5-a]pyrimidine-3-carboxamide trifluoroacetate]	306
O=C(Nc1cscc1C(F)F)c1cnn2ccc(N3CC4CCC3CN4)nc12 (stereo not drawn) [Example 135, 5-(2,5-diazabicyclo[2.2.2]oct-2-yl)-N-[4-(difluoromethyl)thiopen-3-yl]pyrazolo[1,5-a]pyrimidine-3-carboxamide trifluoroacetate]	48
Cn1cc(NC(=O)c2cnn3ccc(N4CC5CCC4CN5)nc23)c(C#N)n1 (stereo not drawn) [Example 136, N-(3-cyano-1-methyl-1H-pyrazol-4-yl)-5-(2,5-diazabicyclo[2.2.2]oct-2-yl)pyrazolo[1,5-a]pyrimidine-3-carboxamide trifluoroacetate]	49
Cn1cc(NC(=O)c2cnn3ccc(N4CCCNCC4)nc23)c(Br)n1 [Example 137, N-(3-bromo-1-methyl-1H-pyrazol-4-yl)-5-(1,4-diazepan-1-yl)pyrazolo[1,5-a]pyrimidine-3-carboxamide trifluoroacetate]	72
Cn1cc(NC(=O)c2cnn3ccc(N[C@@H]4CCCC[C@@H]4N)nc23)c(Br)n1 [Example 138, 5-{[(1R,2S)-2-aminocyclohexyl]amino}-N-(3-bromo-1-methyl-1H-pyrazol-4-yl)pyrazolo[1,5-a]pyrimidine-3-carboxamide trifluoroacetate]	0.3
Cn1cc(NC(=O)c2cnn3ccc(N[C@@H]4CCCC(F)(F)[C@@H]4N)nc23)c(Br)n1 [Example 139, 5-{[(1R,2R)-2-amino-3,3-difluorocyclohexyl]amino}-N-(3-bromo-1-methyl-1H-pyrazol-4-yl)pyrazolo[1,5-a]pyrimidine-3-carboxamide trifluoroacetate]	126
Cn1cc(NC(=O)c2cnn3ccc(N4CC5CCC4CN5)nc23)c(Br)n1 (stereo not drawn) [Example 140, N-(3-bromo-1-methyl-1H-pyrazol-4-yl)-5-(2,5-diazabicyclo[2.2.2]oct-2-yl)pyrazolo[1,5-a]pyrimidine-3-carboxamide trifluoroacetate]	42
N#Cc1cscc1NC(=O)c1cnn2ccc(N3CCCNCC3)nc12 [Example 141, N-(4-cyanothiophen-3-yl)-5-(1,4-diazepan-1-yl)pyrazolo[1,5-a]pyrimidine-3-carboxamide trifluoroacetate]	359
O=C(Nc1ccsc1Br)c1cnn2ccc(N3CC4CCC3CN4)nc12 (stereo not drawn) [Example 142, N-(2-bromothiophen-3-yl)-5-(2,5-diazabicyclo[2.2.2]oct-2-yl)pyrazolo[1,5-a]pyrimidine-3-carboxamide trifluoroacetate]	524
N#Cc1cscc1NC(=O)c1cnn2ccc(N[C@@H]3CCCC(F)(F)[C@@H]3N)nc12 [Example 143, 5-{[(1R,2R)-2-amino-3,3-difluorocyclohexyl]amino}-N-(4-cyanothiophen-3-yl)pyrazolo[1,5-a]pyrimidine-3-carboxamide]	192
N[C@H]1CCCC[C@H]1Nc1ccn2ncc(C(=O)Nc3ccsc3C(F)(F)F)c2n1 [Example 144, 5-{[(1R,2S)-2-aminocyclohexyl]amino}-N-[2-(trifluoromethyl)thiophen-3-yl]pyrazolo[1,5-a]pyrimidine-3-carboxamide trifluoroacetate]	7
N#Cc1cscc1NC(=O)c1cnn2ccc(N3CC4CCC3CN4)nc12 (stereo not drawn) [Example 145, N-(4-cyanothiophen-3-yl)-5-(2,5-diazabicyclo[2.2.2]oct-2-yl)pyrazolo[1,5-a]pyrimidine-3-carboxamide trifluoroacetate]	165
O=C(Nc1ccccc1C(F)F)c1cnn2ccc(N3CC4CCC3CN4)nc12 (stereo not drawn) [Example 146, 5-(2,5-diazabicyclo[2.2.2]oct-2-yl)-N-[2-(difluoromethyl)phenyl] pyrazolo[1,5-a]pyrimidine-3-carboxamide trifluoroacetate]	1460
O=C(Nc1ccsc1C(F)(F)F)c1cnn2ccc(N3CC4CCC3CN4)nc12 (stereo not drawn) [Example 147, 5-(2,5-diazabicyclo[2.2.2]oct-2-yl)-N-[2-(trifluoromethyl)thiophen-3-yl]pyrazolo[1,5-a]pyrimidine-3-carboxamide trifluoroacetate]	979
Cn1cc(NC(=O)c2cnn3ccc(N4CCCNCC4)nc23)c(Cl)n1 [Example 148, N-(3-chloro-1-methyl-1H-pyrazol-4-yl)-5-(1,4-diazepan-1-yl)pyrazolo[1,5-a]pyrimidine-3-carboxamide trifluoroacetate]	113
Cn1cc(NC(=O)c2cnn3ccc(N[C@@H]4CCCC[C@@H]4N)nc23)c(Cl)n1 [Example 149, 5-{[(1R,2S)-2-aminocyclohexyl]amino}-N-(3-chloro-1-methyl-1H-pyrazol-4-yl)pyrazolo[1,5-a]pyrimidine-3-carboxamide trifluoroacetate]	0.5
Cn1cc(NC(=O)c2cnn3ccc(N[C@@H]4CCCC(F)(F)[C@@H]4N)nc23)c(Cl)n1 [Example 150, 5-{[(1R,2R)-2-amino-3,3-difluorocyclohexyl]amino}-N-(3-chloro-1-methyl-1H-pyrazol-4-yl)pyrazolo[1,5-a]pyrimidine-3-carboxamide]	109

Structure (SMILES)	IC50 [nM]
O=C(Nc1ccsc1C(F)(F)F)c1cnn2ccc(N3CCCNCC3)nc12 [Example 153, 5-(1,4-diazepan-1-yl)-N-[2-(trifluoromethyl)thiophen-3-yl]pyrazolo[1,5-a]pyrimidine-3-carboxamide trifluoroacetate]	1010
Cn1ncc(NC(=O)c2cnn3ccc(N[C@@H]4CCCC[C@@H]4N)nc23)c1C(F)(F)F [Example 166, 5-{[(1R,2S)-2-aminocyclohexyl]amino}-N-[1-methyl-5-(trifluoromethyl)-1H-pyrazol-4-yl]pyrazolo[1,5-a]pyrimidine-3-carboxamide trifluoroacetate]	15
O=C(Nc1cscc1Cl)c1cnn2ccc(N3CCCNCC3)nc12 [Example 167, N-(4-chlorothiophen-3-yl)-5-(1,4-diazepan-1-yl)pyrazolo[1,5-a]pyrimidine-3-carboxamide trifluoroacetate]	480
N[C@H]1CCCC[C@H]1Nc1ccn2ncc(C(=O)Nc3cscc3Cl)c2n1 [Example 168, 5-{[(1R,2S)-2-aminocyclohexyl]amino}-N-(4-chlorothiophen-3-yl)pyrazolo[1,5-a]pyrimidine-3-carboxamide trifluoroacetate]	1
N[C@@H]1[C@H](Nc2ccn3ncc(C(=O)Nc4ccsc4C(F)F)c3n2)CCCC1(F)F [Example 170, 5-{[(1R,2R)-2-amino-3,3-difluorocyclohexyl]amino}-N-[2-(difluoromethyl)thiophen-3-yl]pyrazolo[1,5-a]pyrimidine-3-carboxamide]	560
Cn1cc(NC(=O)c2cnn3ccc(N4CC5CCC(C4)N5)nc23)c(C(F)F)n1 [Example 172, 5-(3,8-diazabicyclo[3.2.1]oct-3-yl)-N-[3-(difluoromethyl)-1-methyl-1H-pyrazol-4-yl]pyrazolo[1,5-a]pyrimidine-3-carboxamide trifluoroacetate]	1
N[C@H]1CCCC[C@H]1Nc1ccn2ncc(C(=O)Nc3ccsc3)c2n1 [Example 181, 5-{[(1R,2S)-2-aminocyclohexyl]amino}-N-thiophen-3-ylpyrazolo[1,5-a]pyrimidine-3-carboxamide trifluoroacetate]	54
Cn1cc(NC(=O)c2cnn3ccc(N4CC5CNC(C5)C4)nc23)c(C(F)F)n1 (stereo not drawn) [Example 182, 5-[(3,6-diazabicyclo[3.2.1]oct-3-yl]-N-[3-(difluoromethyl)-1-methyl-1H-pyrazol-4-yl]pyrazolo[1,5-a]pyrimidine-3-carboxamide trifluoroacetate]	14
O=C(Nc1ccsc1Cl)c1cnn2ccc(N[C@@H]3CCCC[C@@H]3O)nc12 [Example 185, N-(2-chlorothiophen-3-yl)-5-{[(1R,2S)-2-hydroxycyclohexyl]amino} pyrazolo[1,5-a]pyrimidine-3-carboxamide]	1580
Cn1cc(NC(=O)c2cnn3ccc(N[C@@H]4CCCC[C@@H]4O)nc23)c(Cl)n1 [Example 186, N-(3-chloro-1-methyl-1H-pyrazol-4-yl)-5-{[(1R,2S)-2-hydroxycyclohexyl]amino} pyrazolo[1,5-a]pyrimidine-3-carboxamide]	24
N#Cc1sccc1NC(=O)c1cnn2ccc(N[C@@H]3CCCC[C@@H]3O)nc12 [Example 187, N-(2-cyanothiophen-3-yl)-5-{[(1R,2S)-2-hydroxycyclohexyl]amino} pyrazolo[1,5-a]pyrimidine-3-carboxamide]	250
N[C@@H]1[C@H](Nc2ccn3ncc(C(=O)Nc4ccsc4Cl)c3n2)CCCC1(F)F [Example 190, 5-{[(1R,2R)-2-amino-3,3-difluorocyclohexyl]amino}-N-(2-chlorothiophen-3-yl)pyrazolo[1,5-a]pyrimidine-3-carboxamide]	891
N#Cc1sccc1NC(=O)c1cnn2ccc(N[C@@H]3CCCC(F)(F)[C@@H]3N)nc12 [Example 191, 5-{[(1R,2R)-2-amino-3,3-difluorocyclohexyl]amino}-N-(2-cyanothiophen-3-yl)pyrazolo[1,5-a]pyrimidine-3-carboxamide]	156
O=C(Nc1ccccc1Cl)c1cnn2ccc(N[C@@H]3CCCC[C@@H]3O)nc12 [Example 194, N-(2-chlorophenyl)-5-{[(1R,2S)-2-hydroxycyclohexyl]amino} pyrazolo[1,5-a]pyrimidine-3-carboxamide]	1750
O=C(Nc1ccccc1Br)c1cnn2ccc(N[C@@H]3CCCC[C@@H]3O)nc12 [Example 195, N-(2-bromophenyl)-5-{[(1R,2S)-2-hydroxycyclohexyl]amino} pyrazolo[1,5-a]pyrimidine-3-carboxamide]	2930
O=C(Nc1ccsc1Br)c1cnn2ccc(N[C@@H]3CCCC[C@@H]3O)nc12 [Example 196, N-(2-bromothiophen-3-yl)-5-{[(1R,2S)-2-hydroxycyclohexyl]amino} pyrazolo[1,5-a]pyrimidine-3-carboxamide trifluoroacetate]	2650
